Measured values taken from patent US20230398243A1, “THERAPEUTIC, RADIOLABELED NANOPARTICLES AND METHODS OF USE THEREOF” (The General Hospital Corporation, priority 2020, published 2023).

Tested on: MDA-MB-231-luc-D3H2LN cell line
Assay: tumor cell apoptosis, proliferation, invasion, migration and cell cycle
Type: cell-based, human
Conditions: low-dose doxorubicin
Source text: 21.6±0.5-nm dextran coated magnetic nanoparticles were conjugated to 8±0.7 LNA antagomirs targeting miRNA-10b, (Exiqon, Woburn, MA) (FIG. 1A). The MN-anti-miR10b therapeutic was functional in the human lymph-node metastatic MDA-MB-231-luc-D3H2LN cell line (Perkin Elmer, Hopkinton MA). […] In order to assess the therapeutic potential of this methodology, the effect of miR-10b inhibition on tumor cell apoptosis, proliferation, invasion and migration was investigated.
It was also hypothesized that by co-administering a low dose of a cytotoxic chemotherapeutic (e.g., doxorubicin), the effectiveness of the therapeutic could be amplified, leading not only to inhibition of tumor growth, but regression and, possibly, elimination of metastasis. […] Further proof for this hypothesis came from experiments in which we attempted to generate a miR-10b knock-out subline derived from the MDA-MB-231-luc-D3H2LN cell line (FIG. 3A). We observed that within 24 h of transfection with the knock-out vector set (TALEN5 L+R), the cells acquired a spindle-shaped conformation and began to detach. By 72 h of transfection, there were no viable cells (FIG. 3B).

COc1cccc2c1C(=O)c1c(O)c3c(c(O)c1C2=O)C[C@@](O)(C(=O)CO)C[C@@H]3O[C@H]1C[C@H](N)[C@H](O)[C@H](C)O1 [doxorubicin]
effect on the cell cycle (flow cytometry): induced polyploidy and G2/M arrest
